# Test results published in patent publication US6815440B2, “Cyclic and heterocyclic N-substituted α-iminohydroxamic and -carboxylic acids” (Aventis Pharma Deutschland GmbH, priority 1995, dated 2004).
# Counter-ions that a name gives are not always drawn.
# How the values were obtained:
# Assay type in all cases: biochemical
# [1] = biological target: T1, catalytic domain of human stromelysine (Homo sapiens, UniProt P08254); assay: Enzyme inhibition, catalytic domain of human stromelysine (fluorogenic substrate); conditions: hydroxamic acids up to and including Example 33; tris/HCl buffer pH=7.5; read-out: Stromelysine IC 50
# T1 construct: enzymatic activity of the catalytic domains of human stomelysine and of neutrophil collagenase; made in house
# Method: (§1) Preparation and determination of the enzymatic activity of the catalytic domains of human stomelysine and of neutrophil collagenase.
# (§2) The two enzymes were prepared according to Ye et al., (Biochemistry 31 (1992) 11231-5). To measure the enzyme activity or enzyme inhibitor action, 70 μl of buffer solution and 10 μl of enzyme solution are incubated for 15 minutes with 10 μl of a 10% strength (v/v) aqueous dimethyl sulfoxide solution, which optionally contains the enzyme inhibitor. After addition of 10 μl of a 10% strength (v/v) aqueous dimethyl sulfoxide solution which contains 1 mmol/l of the substrate, the enzyme reaction is monitored by fluorescence spectroscopy (328 nm (ex)/393 nm(em)). The enzyme activity is shown as extinction increase/minute. […] The buffer solution contains 0.05% of Brij (Sigma, Deisenhofen, Germany) and also 0.1 mol/l of tris/HCl, 0.1 mol/l of NaCl, 0.01 mol/l of CaCl2 (pH=7.5) for the determination of the hydroxamic acids up to and including Example 33, or, for the determination of the carboxylic acids from Example 34, 0.1 mol/l of piperazine-N,N′-bis[2-ethanesulfonic acid] pH=6.5.
# (§3) The enzyme solution contains 5 μg/ml of one of the enzyme domains prepared according to Ye et al. The substrate solution contains 1 mmol/l of the fluorogenic substrate (7-methoxycoumarin-4-yl)acetyl-Pro-Leu-Gly-Leu-3-(2′,4′-dinitrophenyl)-L-2,3-diaminopropionyl-Ala-Arg-NH2 (Bachem, Heidelberg, Germany).
# [2] = biological target: T2, catalytic domain of stromelysine-1 (Homo sapiens, UniProt P08254); assay: Proteoglycan degradation assay (bovine aggrecan, ELISA with antibody 5-D-4); conditions: bovine nasal proteoglycane, 60 ng stromelysine-1 catalytic domain, MES pH 6.0, RT 3 h
# T2 construct: enzymatic activity of the catalytic domains of human stomelysine and of neutrophil collagenase; made in house
# Method: In the proteoglycan degradation assay, the extent of the degradation of native bovine aggrecan, the most important proteoglycan of the cartilage, is measured. The released proteoglycan fragments are determined using the monoclonal antibody 5-D-4 which recognizes the keratan sulfate side-chains which are located at the carboxy terminal of the G2 domain of aggrecan. Thus, the assay detects primarily pathologically important degradations which take place in the interglobular domain of aggrecan.
# After addition of compounds of the formula I and the enzyme in the form of the catalytic domain of stromelysine-1, the amount of hyaluronic acid-bound aggrecan which remains after degradation is measured. The more aggrecan is detected, the lower the residual activity of the enzyme.
# Description of the Test Protocol:
# Wells of 96 well microtiter plates (Nunc, Maxisorp) each containing 100 μl of hyaluronic acid solution (25 μg/ml of hyaluronic acid (Sigma) in PBS) are incubated at room temperature (RT) for 12 h. The hyaluronic acid solution is removed by suction and the remaining free protein binding sites of the wells are saturated with in each case […] of a 5% strength solution of bovine serum albumin (BSA), 0.05% of Tween20 in PBS at RT for 1 h. The wells are subsequently covered with proteoglycane by incubating the wells with 100 μl each of a solution of bovine nasal proteoglycane (ICI) (200 μg/ml in 1×PBS, 5 mg/ml of BSA, 0.05% of Tween20) at RT for 1 h. The wells are washed twice with 1×PBS, 0.1% Tween20 to remove the free proteoglycanes. Subsequently, for the actual assay, 60 ng of purified catalytic domain of Stromelysine-1 (for the recombinant expression and purification, see Ye et al. (1992)) plus corresponding concentrations of the inhibitor to be tested in 100 μl of degradation buffer (100 mM MES pH 6.0, 100 mM NaCl, 10 mM CaCl2, 0.05% of Brij) are pipetted into the wells and incubated at RT for 3 h. The wells are washed twice with 1×PBS, 0.1% of Tween20 and then incubated with 100 μl of a solution of the detection antibody (monoclonal antibody done 5-D-4 (ICI), immunoreactive with the keratan sulfate side-chains of the proteoglycane, dilution 1:1000 in 1×PBS, 5 mg/ml BSA, 0.05% Tween20). The wells are washed twice with 1×PBS, 0.1% of Tween20, after which the immune reaction of the bound detection antibodies is carried out using 100 μl per well of an antibody solution for detection (goat anti Maus IgG, labeled with peroxidase (Dianova), diluted 1:1000 in 1×PBS, 5 mg/ml of BSA, 0.05% of Tween20) at RT for 1 h. The wells are again washed twice (as above), and the color reaction is then initiated using 100 μl each of 2 mg/ml of ABTS, activated with H2O2. The reaction products are measured in an ELISA reader at a wavelength of […].
# [3] = biological target: T3, catalytic domain of neutrophil collagenase (Homo sapiens, UniProt P22894); assay: Enzyme inhibition, catalytic domain of neutrophil collagenase (fluorogenic substrate); conditions: hydroxamic acids up to and including Example 33; tris/HCl buffer pH=7.5; read-out: Neutrophil collagenase IC 50
# T3 construct: enzymatic activity of the catalytic domains of human stomelysine and of neutrophil collagenase; made in house
# Method: as §1, §2, §3
# T3 sequence (P22894 100-262 limits assumed): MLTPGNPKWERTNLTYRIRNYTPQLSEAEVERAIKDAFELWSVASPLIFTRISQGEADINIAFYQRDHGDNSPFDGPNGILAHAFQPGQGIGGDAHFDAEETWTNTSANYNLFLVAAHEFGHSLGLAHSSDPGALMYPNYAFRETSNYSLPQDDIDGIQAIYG
# T1 sequence (P08254 100-272 limits assumed): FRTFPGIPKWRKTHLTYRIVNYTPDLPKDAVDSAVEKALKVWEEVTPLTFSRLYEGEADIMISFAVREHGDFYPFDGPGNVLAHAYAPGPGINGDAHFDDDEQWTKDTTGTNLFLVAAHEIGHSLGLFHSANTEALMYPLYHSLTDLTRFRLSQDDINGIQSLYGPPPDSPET
# T2 sequence (P08254 100-272 limits assumed): as above
SMILES,IC50 [1] [µM],IC50 [2] [µM],IC50 [3] [µM]
"O=C(NO)[C@H]1Cc2ccccc2CN1S(=O)(=O)c1ccc(Oc2ccccc2)cc1 [Example 13c, R-2-(4-phenoxybenzenesulfonyl)-1,2,3,4-tetrahydroisoquinoline-3-hydroxamic acid]",0.02,0.051,0.002
CN(C)c1ccc(Oc2ccc(S(=O)(=O)N3Cc4ccccc4C[C@@H]3C(=O)NO)cc2)cc1 [Example 14],0.03,0.0067,0.002
O=C(Nc1ccc(S(=O)(=O)N2Cc3ccccc3C[C@@H]2C(=O)NO)cc1)OCc1ccccc1 [Example 9],0.4,1.6,0.8
"COc1ccc(S(=O)(=O)N2Cc3nc[nH]c3C[C@@H]2C(=O)NO)cc1 [Example 29, R-5-(4-methoxybenzenesulfonyl)-4,5,6,7-tetrahydro-1H-imidazo-(4,5-c)-pyridine-6-hydroxamic acid hydrochloride]",0.02,0.025,0.004

# Further molecules by falling IC50 [1], results first:
IC50 [1] [µM],IC50 [2] [µM],IC50 [3] [µM],SMILES
0.03,0.041,0.003,O=C(c1ccccc1)c1ccc(S(=O)(=O)N2Cc3ccccc3C[C@@H]2C(=O)NO)cc1 [Example 18]
0.02,0.065,0.002,CCOC(=O)Oc1ccc2c(c1)CN(S(=O)(=O)c1ccc(OC)cc1)[C@@H](C(=O)NO)C2 [Example 21]
0.02,0.085,0.0002,O=C(NO)C1Cc2ccccc2CN1S(=O)(=O)c1ccc(-c2ccccc2)cc1 (stereo not drawn) [Example 2]
